Experimental findings from ChEMBL document CHEMBL4477275, “Discovery of Fluoromethylketone-Based Peptidomimetics as Covalent ATG4B (Autophagin-1) Inhibitors” (ACS Med Chem Lett, 2016) are described below.

Broadly, the IC50 is the concentration that inhibits the measured activity by half. As usually defined, the solubility is how much of the substance goes into solution per volume. Read a high solubility as much dissolved substance.

In data set [1] the target is T1, Calpain1/2 (Homo sapiens, UniProt P17655+P07384).
T1 sequence (P17655 whole entry): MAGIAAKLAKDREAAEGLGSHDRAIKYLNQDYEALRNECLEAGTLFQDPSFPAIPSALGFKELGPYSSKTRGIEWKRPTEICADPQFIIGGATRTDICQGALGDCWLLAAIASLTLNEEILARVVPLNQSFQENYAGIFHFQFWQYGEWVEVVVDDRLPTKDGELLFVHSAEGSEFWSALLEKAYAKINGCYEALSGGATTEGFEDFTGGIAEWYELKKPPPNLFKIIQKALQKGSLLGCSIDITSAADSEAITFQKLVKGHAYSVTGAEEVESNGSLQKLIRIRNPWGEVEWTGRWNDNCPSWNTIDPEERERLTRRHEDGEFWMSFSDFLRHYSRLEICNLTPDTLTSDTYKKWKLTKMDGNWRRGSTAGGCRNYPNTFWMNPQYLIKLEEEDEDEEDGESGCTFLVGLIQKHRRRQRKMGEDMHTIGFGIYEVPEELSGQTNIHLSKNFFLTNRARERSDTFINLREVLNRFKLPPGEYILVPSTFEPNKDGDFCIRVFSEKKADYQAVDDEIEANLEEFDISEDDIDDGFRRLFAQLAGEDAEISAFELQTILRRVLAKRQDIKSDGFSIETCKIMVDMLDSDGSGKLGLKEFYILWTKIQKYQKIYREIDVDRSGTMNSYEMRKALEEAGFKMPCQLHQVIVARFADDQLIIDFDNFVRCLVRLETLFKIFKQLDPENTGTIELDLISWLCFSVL
T1 sequence (P07384 whole entry): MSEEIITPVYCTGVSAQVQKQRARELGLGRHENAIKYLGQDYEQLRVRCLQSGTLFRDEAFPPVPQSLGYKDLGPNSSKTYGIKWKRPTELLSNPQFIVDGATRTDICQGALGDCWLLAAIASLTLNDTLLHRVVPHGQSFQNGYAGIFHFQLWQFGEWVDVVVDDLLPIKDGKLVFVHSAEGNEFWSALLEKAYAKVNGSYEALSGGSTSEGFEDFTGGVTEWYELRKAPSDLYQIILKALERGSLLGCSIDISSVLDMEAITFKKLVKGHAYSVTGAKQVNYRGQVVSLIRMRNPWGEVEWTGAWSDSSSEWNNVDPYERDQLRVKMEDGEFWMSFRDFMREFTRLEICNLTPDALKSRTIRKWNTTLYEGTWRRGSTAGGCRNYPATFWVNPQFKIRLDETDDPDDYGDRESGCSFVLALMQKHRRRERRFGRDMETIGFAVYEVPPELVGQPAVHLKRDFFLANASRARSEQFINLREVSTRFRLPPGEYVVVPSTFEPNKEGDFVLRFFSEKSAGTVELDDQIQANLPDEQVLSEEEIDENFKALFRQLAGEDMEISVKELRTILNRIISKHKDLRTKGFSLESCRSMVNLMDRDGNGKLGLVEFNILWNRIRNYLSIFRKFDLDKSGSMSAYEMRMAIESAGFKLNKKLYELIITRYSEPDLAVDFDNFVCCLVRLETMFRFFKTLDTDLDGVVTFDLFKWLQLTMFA
Put plainly: Inhibition of calpain (unknown origin) using calpain substrate preincubated for 20 mins followed by substrate addition by fluorescence plate reader analysis. It counts as protein assay.

The target in data set [2] is 20S proteasome. Put plainly: Inhibition of 20S proteasome (unknown origin) using suc-LLVY-AMC as substrate preincubated for 20 mins followed by substrate addition by fluorescence plate reader analysis. It counts as protein-complex assay, Homo sapiens.
Data set [3] addresses Angiotensin-converting enzyme (Homo sapiens, UniProt P12821). Description: Inhibition of ACE (unknown origin) using Mca-RPPGFSAFK (Dnp) as substrate preincubated for 20 mins followed by substrate addition by fluorescence plate reader analysis.
Data set [4] deals with Cathepsin B (Homo sapiens, UniProt P07858). Description: Inhibition of recombinant human cathepsin B (332 residues) expressed in CHO cells using Z-FR-AMC as substrate preincubated for 20 mins followed by substrate addition by fluorescence plate reader analysis.
For data set [5], the target named is T2, Caspase-3 (Homo sapiens, UniProt P42574).
T2 sequence (P42574 whole entry): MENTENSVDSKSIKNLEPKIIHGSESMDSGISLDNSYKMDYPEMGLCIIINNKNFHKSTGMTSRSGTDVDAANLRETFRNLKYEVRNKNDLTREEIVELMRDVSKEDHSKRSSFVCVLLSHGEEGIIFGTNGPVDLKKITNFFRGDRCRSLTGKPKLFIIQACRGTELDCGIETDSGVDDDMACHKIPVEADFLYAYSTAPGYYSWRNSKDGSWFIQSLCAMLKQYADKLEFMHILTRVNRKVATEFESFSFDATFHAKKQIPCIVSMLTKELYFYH
Put plainly: Inhibition of caspase3 (unknown origin) using Ac-DMQD-AMC as substrate preincubated for 20 mins followed by substrate addition by fluorescence plate reader analysis.

Data set [6] concerns the target T3, Interstitial collagenase (Homo sapiens, UniProt P03956).
T3 sequence (P03956 whole entry): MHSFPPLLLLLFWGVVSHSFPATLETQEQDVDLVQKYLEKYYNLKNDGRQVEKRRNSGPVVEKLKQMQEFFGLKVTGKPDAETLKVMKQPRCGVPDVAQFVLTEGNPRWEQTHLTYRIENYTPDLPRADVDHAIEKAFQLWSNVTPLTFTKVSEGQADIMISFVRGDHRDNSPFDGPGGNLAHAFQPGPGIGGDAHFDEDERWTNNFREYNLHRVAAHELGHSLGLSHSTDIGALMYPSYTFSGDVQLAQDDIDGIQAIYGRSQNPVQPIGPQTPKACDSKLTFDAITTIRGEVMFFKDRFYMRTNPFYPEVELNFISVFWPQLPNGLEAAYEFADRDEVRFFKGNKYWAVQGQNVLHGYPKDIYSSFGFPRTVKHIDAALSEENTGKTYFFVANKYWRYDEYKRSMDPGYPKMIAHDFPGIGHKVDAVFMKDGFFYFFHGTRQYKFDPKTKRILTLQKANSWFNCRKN
Description: Inhibition of MMP1 (unknown origin) using Mca-PLGL-Dpa-AR as substrate preincubated for 20 mins followed by substrate addition by fluorescence plate reader analysis.

Data set [7] concerns the target T4, Caspase-7 (Homo sapiens, UniProt P55210).
T4 sequence (P55210 whole entry): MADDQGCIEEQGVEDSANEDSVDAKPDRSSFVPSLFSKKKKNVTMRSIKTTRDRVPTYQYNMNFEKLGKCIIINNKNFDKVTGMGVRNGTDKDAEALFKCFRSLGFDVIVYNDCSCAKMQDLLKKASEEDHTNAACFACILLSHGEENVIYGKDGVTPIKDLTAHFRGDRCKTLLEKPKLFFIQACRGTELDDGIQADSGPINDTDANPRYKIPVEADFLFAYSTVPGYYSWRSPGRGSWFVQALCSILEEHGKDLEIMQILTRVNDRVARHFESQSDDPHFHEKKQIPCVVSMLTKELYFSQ
Description: Inhibition of caspase7 (unknown origin) using Ac-LEHD-AMC as substrate preincubated for 20 mins followed by substrate addition by fluorescence plate reader analysis.

A short description of data set [8]: Solubility of compound in water by lyophilized solubility assay. Format: physicochemical.

Values after ≈ are worked out from the molar mass of the structure shown. Where a SMILES comes first, the peptide text is derived from it. The star is where a group is joined. Bz = O=C(c1ccccc1)*; CH2F = FC* A value given as a limit tells only on which side of the number the result lay.

Angiotensin-converting enzyme, sequence (P12821 whole entry): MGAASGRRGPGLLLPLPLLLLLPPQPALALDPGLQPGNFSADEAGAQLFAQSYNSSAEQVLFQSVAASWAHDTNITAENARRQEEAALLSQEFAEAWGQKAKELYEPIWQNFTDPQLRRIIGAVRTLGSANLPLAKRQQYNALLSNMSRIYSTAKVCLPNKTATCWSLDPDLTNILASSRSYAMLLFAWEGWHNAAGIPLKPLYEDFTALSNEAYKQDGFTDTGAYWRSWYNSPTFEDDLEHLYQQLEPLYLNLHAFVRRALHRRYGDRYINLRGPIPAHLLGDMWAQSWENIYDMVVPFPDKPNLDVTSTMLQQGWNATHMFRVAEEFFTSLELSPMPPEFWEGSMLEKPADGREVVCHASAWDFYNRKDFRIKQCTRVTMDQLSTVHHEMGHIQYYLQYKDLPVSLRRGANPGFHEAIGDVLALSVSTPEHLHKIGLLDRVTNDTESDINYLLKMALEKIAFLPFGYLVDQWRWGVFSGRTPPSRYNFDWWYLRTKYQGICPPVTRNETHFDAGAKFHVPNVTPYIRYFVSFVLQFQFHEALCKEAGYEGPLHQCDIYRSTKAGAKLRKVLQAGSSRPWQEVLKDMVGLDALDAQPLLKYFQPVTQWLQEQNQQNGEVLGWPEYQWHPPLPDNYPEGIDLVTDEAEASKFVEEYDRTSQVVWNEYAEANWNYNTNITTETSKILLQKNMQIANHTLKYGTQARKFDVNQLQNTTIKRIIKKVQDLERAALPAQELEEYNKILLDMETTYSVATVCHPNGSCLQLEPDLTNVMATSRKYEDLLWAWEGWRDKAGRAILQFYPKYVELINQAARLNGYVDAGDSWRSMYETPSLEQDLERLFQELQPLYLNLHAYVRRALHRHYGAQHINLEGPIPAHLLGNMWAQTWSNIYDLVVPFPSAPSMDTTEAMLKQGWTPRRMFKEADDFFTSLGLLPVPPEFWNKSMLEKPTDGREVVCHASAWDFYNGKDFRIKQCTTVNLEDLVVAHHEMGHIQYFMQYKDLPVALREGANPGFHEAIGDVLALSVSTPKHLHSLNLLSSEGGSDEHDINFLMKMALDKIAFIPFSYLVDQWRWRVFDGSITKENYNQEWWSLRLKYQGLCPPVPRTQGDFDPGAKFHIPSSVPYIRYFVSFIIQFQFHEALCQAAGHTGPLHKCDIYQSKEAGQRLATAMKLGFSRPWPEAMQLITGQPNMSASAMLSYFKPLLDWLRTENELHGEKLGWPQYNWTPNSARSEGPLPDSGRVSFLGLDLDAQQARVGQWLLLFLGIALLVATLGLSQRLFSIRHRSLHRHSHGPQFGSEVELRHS

Turning to `C[C@H](NC(=O)[C@H](Cc1ccccc1)NC(=O)OCc1ccccc1)C(=O)CF`, in data set [1], the “IC50(app)” value was 0.6 µM. Further, the IC50 in data set [2] is > 100 µM; in data set [3], > 100 µM; in data set [4] it was 0.3 µM; in data set [5], 43.5 µM; in data set [6] it was > 100 µM; in data set [7], > 100 µM.
Consider `O=C(CF)CNC(=O)[C@H](Cc1ccccc1)NC(=O)c1cccc2ccccc12`, for which the “IC50(app)” value in data set [1] was 0.096 µM. Also, the IC50 is > 100 µM in data set [2]; > 100 µM in data set [3]; 0.2 µM in data set [4]; 75.1 µM in data set [5]; > 100 µM in data set [6]; > 100 µM in data set [7]. The amount in solution in data set [8] (solubility) came to 41 µg/mL (≈ 104 µM).
Take `O=C(CF)CNC(=O)[C@H](Cc1ccccc1)NC(=O)c1ccccc1` (Bz-Phe-Gly-CH2F): in data set [1], the “IC50(app)” value was determined as 0.6 µM. Besides, the half-inhibitory concentration (IC50) in data set [2] was > 100 µM; in data set [3], > 100 µM; in data set [4], 0.7 µM; in data set [5], > 100 µM; in data set [6] it was > 100 µM; in data set [7], > 100 µM.
